# According to patent US8829034B2, “Compounds which modulate the CB2 receptor” (Boehringer Ingerlheim International GmbH, priority 2006, dated 2014):
# Biological target: T1, human CB2R (Homo sapiens, UniProt P34972)
# T1 construct: host or cells: CHO cells
# Experiment: CB2R mediated modulation of cAMP synthesis
# Type: cell-based
# Settings: for agonistic activity: found through the use of the above described assays
# Outline: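 CHO cells expressing human CB2R were treated with compound for 30 min at 37 °C in buffer containing 1 mM IBMX, 0.25% BSA and 10 uM forskolin. cAMP was measured after lysis. EC50 was taken as 50% inhibition of forskolin-stimulated cAMP, with 100% defined by 1 uM CP55940, using a four-parameter logistic fit.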
# T1 sequence (P34972 whole entry): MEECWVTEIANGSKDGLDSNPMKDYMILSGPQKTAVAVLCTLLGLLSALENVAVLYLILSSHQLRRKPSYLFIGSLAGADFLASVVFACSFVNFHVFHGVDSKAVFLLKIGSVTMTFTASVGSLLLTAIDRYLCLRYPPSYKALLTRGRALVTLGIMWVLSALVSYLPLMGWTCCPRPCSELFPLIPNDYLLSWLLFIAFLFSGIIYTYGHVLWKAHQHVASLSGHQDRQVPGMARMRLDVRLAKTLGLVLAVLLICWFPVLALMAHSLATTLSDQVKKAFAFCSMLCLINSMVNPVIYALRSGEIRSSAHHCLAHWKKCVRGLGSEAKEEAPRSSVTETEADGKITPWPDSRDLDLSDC
SMILES,EC50 [nM],agonistic activity
CC(C)(C(=O)Nc1nc(-c2ccc(Cl)cc2)cs1)S(=O)(=O)CC1CCOCC1 [N-[4-(4-Chloro-phenyl)-thiazol-2-yl]-2-methyl-2-(tetrahydro-pyran-4-ylmethanesulfonyl)-propionamide],2.2,agonistic activity
CC(C)(C(=O)Nc1nc(-c2ccc(F)cc2)cs1)S(=O)(=O)CC1CCOCC1 [N-[4-(4-Fluoro-phenyl)-thiazol-2-yl]-2-methyl-2-(tetrahydro-pyran-4-ylmethanesulfonyl)-propionamide],5.5,agonistic activity
